Results from article PMC4521081, “Thiophenecarboxamide Derivatives Activated by EthA Kill Mycobacterium tuberculosis by Inhibiting the CTP Synthetase PyrG” (Chemistry & Biology, 2015).
Converted amounts (≈) assume the structure as drawn.

How the values were obtained:
[1] = tested on: M. tuberculosis ethA mutant 81.10 (Δ1109–1137); assay type: cell-based, Mycobacterium tuberculosis
[2] = tested on: M. tuberculosis pyrG mutant 88.7 (V186G); assay type: cell-based, Mycobacterium tuberculosis
[3] = tested on: M. tuberculosis 82.19 (ethA L129P, pyrG V186G); assay type: cell-based, Mycobacterium tuberculosis
[4] = tested on: M. tuberculosis 82.22 (ethA ΔT-94, pyrG V186G); assay type: cell-based, Mycobacterium tuberculosis
[5] = tested on: M. tuberculosis 82.14 (ethA W45R, pyrG V186G); assay type: cell-based, Mycobacterium tuberculosis
[6] = tested on: M. tuberculosis 88.10 (pyrG V186G); assay type: cell-based, Mycobacterium tuberculosis
PyrG V186G mutant = PyrG V186G mutant (Mycobacterium tuberculosis, UniProt P9WHK7, V186G); assay type: biochemical, M. tuberculosis

Row | SMILES | resistance of 81.10 mutant (mutated in ethA gene) [1] | MIC [2] [µg/mL] | MIC [3] [µg/mL] | MIC [4] [µg/mL] | MIC [5] [µg/mL] | MIC [6] [µg/mL] | MIC [1] [µg/mL] | % of inhibition at 200 M PyrG V186G mutant (PyrG V186G mutant) [%] | activity against PyrG V186G mutant (PyrG V186G mutant)
1 | Cc1ccc(C(=O)O)s1 [compound 11326028, 5-methylthiophene-2-carboxylic acid] | resistant | > 8 |  |  |  |  |  |  | 
2 | Cc1ccc(C(=O)Nc2ccc([N+](=O)[O-])cc2)s1 [compound 7947882, 5-methyl-N-(4-nitrophenyl)thiophene-2-carboxamide] |  |  | >40 | >40 | >40 | 5 to 10 |  |  | 
3 | O=C(CCc1ccccc1)NC(=S)Nc1ccc(N2CCCCC2)cc1 [compound 7904688, 3-phenyl-N-[(4-piperidin-1-ylphenyl)carbamothioyl]propanamide] |  | 10 (≈ 27.2 µM) | >40 | >40 | >40 | 10 (≈ 27.2 µM) | >40 |  | 
4 | CC1=CC=C(C(=O)Nc2ccc([N+](=O)[O-])cc2)S1(=O)=O [compound 11426026] |  | 2.5 (≈ 8.5 µM) |  |  |  |  | 1 (≈ 3.4 µM) | 18.3 ± 1.5 | not active
5 | CCc1cc(C(N)=S)ccn1 [ETH, ethionamide, reference compound] |  | 0.5 (≈ 3.01 µM) | 10 (≈ 60.2 µM) | 10 (≈ 60.2 µM) | 10 (≈ 60.2 µM) | 0.5 (≈ 3.01 µM) | 10 (≈ 60.2 µM) |  | 
6 | COc1ccc(NC(=O)c2cc([N+](=O)[O-])c(C)s2)cc1OC [compound 11326054] | resistant | > 8 |  |  |  |  |  |  | 
